Tests used:
[1] = system: B16.BL6 melanoma cells; assay: Cell concentration and viability after conjugation, trypan blue (Example 14); assay type: cell-based
Method: (§1) Nine flasks (300 cm^2) (TPP, Trasadingen Switzerland) of confluent B16.BL6 melanoma cells grown in DMEM containing 10% fetal calf serum (without P/S) at 37.5° C. in 5% CO2 were used for this experiment. Growth medium was removed from the cells and 20 mL of HBSS containing D-glucose (without Mg^2+ and Ca^2+) (Gibco, Invitrogen, Taastrup, Denmark) was added to the cells and immediately removed again. Another 10 mL of HBSS containing D-glucose (without Mg^2+ and Ca^2+) was added and removed, before cells were harvested with Cell Dissociation Solution C5914 (Sigma-aldrich, Saint Louis, Mo.) (10 mL per flask) and transferred to 50 mL tubes (TPP, Trasadingen Switzerland). The cells were centrifuged for 3 minutes at 300 G at 20° C. and the supernatant was discarded. Subsequently, cells were washed twice in HBSS containing D-glucose (without Mg^2+ and Ca^2+), centrifuged as above and resuspended in HBSS containing D-glucose (without Mg^2+ and Ca^2+). The concentration of the cell suspension was determined.
Radioactive labelled and regular trisaccharide probe was dissolved in HBSS containing D-glucose (without Mg^2+ and Ca^2+) (Gibco Invitrogen, Taastrup, Denmark) and passed through sterile filters (0.2 μm Supor® Acrodisc® 13, Gelman Sciences, Ann Arbor, Mich.). Four different concentrations of each “Glycom conjugate” (25 mg, 5 mg, 1 mg and 0.1 mg) were made. Twelve flasks (150 cm^2) (TPP, Trasadingen Switzerland) were prepared each containing a total of 10×10^6 B16.BL6 cells. The trisaccharide probe was added and the total volume was adjusted to 20 mL with HBSS containing D-glucose (without Mg^2+ and Ca^2+). The cells were incubated with the “Glycom conjugate” for 1.5 hours at 37° C. After conjugation, the supernatant from each flask was transferred to separate 50 mL tubes (TPP, Trasadingen Switzerland). The cells were harvested with Cell Dissociation Solution C5914 (5 mL per flask) (Sigma-Aldrich, Saint Louis, Mo. and transferred to the 50 mL tubes containing the supernatant. The cells were centrifuged for 3 minutes at 300 G at 20° C. and resuspended in 5 mL of PBS (without Mg^2+ and Ca^2+). This was repeated 3 times before cell concentration and viability was determined by microscopical evaluation of trypan blue stained cell samples.

[2] = system: B16.BL6 melanoma cells; assay: Cell concentration and viability after conjugation, trypan blue (Example 15); assay type: cell-based
Method: as §1, with “Twelve flasks” for “Nine flasks”, “CO2 was” for “CO2 were”
Radioactive labelled and regular alpha-Gal trisaccharide-carbamate (9) probe (labeled on the cyclic carbamate carbon) was dissolved in HBSS containing D-glucose (without Mg^2+ and Ca^2+) (Gibco Invitrogen, Taastrup, Denmark) and passed through sterile filters (0.2 μm Supor® Acrodisc® 13, Gelman Sciences, Ann Arbor, Mich.). Eight different concentrations of radioactive labelled alpha-Gal trisaccharide-carbamate (9) (1 μg, 10 μg, 100 μg, 1 mg, 5 mg, 10 mg, 15 mg and 20 mg) and […] concentrations of regular “Glycom conjugate” (10 μg, 100 μg, 1 mg, 5 mg, 10 mg, 15 mg and 20 mg) were used. Twelve flasks (300 cm^2) (TPP, Trasadingen Switzerland) were prepared, each containing 10×10^6 B16.BL6 cells, for conjugation with the radioactive labelled trisaccharide probe, and 8 flasks (150 cm^2) (TPP, Trasadingen Switzerland) were prepared, each containing 5×10^6 B16.BL6 cells, for conjugation with the non-radioactive conjugate. The Glycom conjugate was added and the total volume was adjusted with HBSS containing D-glucose (without Mg^2+ and Ca^2+) so that each large flask (300 cm^2) contained a final volume of 20 mL and each medium flask (150 cm^2) contained a final volume of 10 mL. Cells were incubated with the “Glycom conjugate” for 1.5 hours at 37° C. After conjugation, the supernatant from each flask was transferred to separate 50 mL tubes (TPP, Trasadingen Switzerland). The cells were harvested with Cell Dissociation Solution (10 mL per large flask and 5 mL per medium flask) (Sigma-aldrich, Saint Louis, Mo.) and transferred to the 50 mL tubes containing the supernatant. The cells were centrifuged for 5 minutes at 300 G at 20° C. and resuspended in 5 mL of PBS (without Mg^2+ and Ca^2+). […]

[3] = radioactive labelled conjugate 0.1 mg
[4] = radioactive labelled conjugate 1 mg
[5] = radioactive labelled conjugate 5 mg, cells from supernatant only
[6] = radioactive labelled conjugate 25 mg, attached cells only
[7] = reaction C, radioactive labelled conjugate 20 mg, 10×10^6 cells, 1.5 hours, after washing 4 times
[8] = reaction D, radioactive labelled conjugate 15 mg
[9] = reaction E, radioactive labelled conjugate 10 mg
[10] = reaction F, radioactive labelled conjugate 5 mg
[11] = reaction G, radioactive labelled conjugate 1 mg
[12] = reaction H, radioactive labelled conjugate 100 μg
[13] = reaction I, radioactive labelled conjugate 10 μg
[14] = reaction J, radioactive labelled conjugate 1 μg
[15] = regular conjugate 25 mg, 10×10^6 cells, 1.5 hours
[16] = reaction 2, regular conjugate 20 mg, 5×10^6 cells, 1.5 hours, after washing once
[17] = reaction 3, regular conjugate 15 mg
[18] = reaction 4, regular conjugate 10 mg
[19] = reaction 5, regular conjugate 5 mg
[20] = reaction 6, regular conjugate 1 mg
[21] = reaction 7, regular conjugate 100 μg
[22] = reaction 8, regular conjugate 10 μg

O=[13C]1N[C@@H]2O[C@H](CO)[C@@H](O[C@@H]3O[C@H](CO)[C@H](O)[C@H](O[C@H]4O[C@H](CO)[C@H](O)[C@H](O)[C@H]4O)[C@H]3O)[C@H](O)[C@H]2O1 [radioactive labelled conjugate]
Cell concentration [1, 3]: 13.8 × 10^5
Cells harvested [1, 3]: 6.9 × 10^6
Cells harvested (percent) [1, 3]: 69%
Viability [1, 3]: 91.3%
Cell concentration [1, 4]: 14.8 × 10^5
Cells harvested [1, 4]: 7.4 × 10^6
Cells harvested (percent) [1, 4]: 74%
Viability [1, 4]: 93.2%
Cell concentration [1, 5]: 10.8 × 10^5
Cells harvested [1, 5]: 5.4 × 10^6
Cells harvested (percent) [1, 5]: 54%
Viability [1, 5]: 81.5%
Cell concentration [1, 6]: 2.0 × 10^5
Cells harvested [1, 6]: 1.0 × 10^6
Cells harvested (percent) [1, 6]: 10%
Viability [1, 6]: 90.0%
Cell concentration [2, 7]: 6.1 × 10^6 cells/mL
Cells harvested [2, 7]: 2.7 × 10^6
Cells harvested (percent) [2, 7]: 27.5%
Viability [2, 7]: 82.0%
Cell concentration [2, 8]: 4.3 × 10^6 cells/mL
Cells harvested [2, 8]: 1.9 × 10^6
Cells harvested (percent) [2, 8]: 19.4%
Viability [2, 8]: 88.9%
Cell concentration [2, 9]: 12 × 10^6 cells/mL
Cells harvested [2, 9]: 5.4 × 10^6
Cells harvested (percent) [2, 9]: 54.0%
Viability [2, 9]: 86.7%
Cell concentration [2, 10]: 5.2 × 10^6 cells/mL
Cells harvested [2, 10]: 2.3 × 10^6
Cells harvested (percent) [2, 10]: 23.4%
Viability [2, 10]: 82.7%
Cell concentration [2, 11]: 5.9 × 10^6 cells/mL
Cells harvested [2, 11]: 2.7 × 10^6
Cells harvested (percent) [2, 11]: 26.6%
Viability [2, 11]: 91.5%
Cell concentration [2, 12]: 3.8 × 10^6 cells/mL
Cells harvested [2, 12]: 1.7 × 10^6
Cells harvested (percent) [2, 12]: 17.1%
Viability [2, 12]: 81.6%
Cell concentration [2, 13]: 6.2 × 10^6 cells/mL
Cells harvested [2, 13]: 2.8 × 10^6
Cells harvested (percent) [2, 13]: 27.9%
Viability [2, 13]: 82.3%
Cell concentration [2, 14]: 5.0 × 10^6 cells/mL
Cells harvested [2, 14]: 2.3 × 10^6
Cells harvested (percent) [2, 14]: 22.5%
Viability [2, 14]: 84.0%

O=C1N[C@@H]2O[C@H](CO)[C@@H](O[C@@H]3O[C@H](CO)[C@H](O)[C@H](O[C@H]4O[C@H](CO)[C@H](O)[C@H](O)[C@H]4O)[C@H]3O)[C@H](O)[C@H]2O1 [Compound 9, alpha-Gal trisaccharide-carbamate]
Cell concentration ([1]; regular conjugate 0.1 mg): 7.4 × 10^5
Cells harvested ([1]; regular conjugate 0.1 mg): 3.7 × 10^6
Cells harvested (percent) ([1]; regular conjugate 0.1 mg): 37%
Viability ([1]; regular conjugate 0.1 mg): 67.6%
Cell concentration ([1]; regular conjugate 1 mg): 13.4 × 10^5
Cells harvested ([1]; regular conjugate 1 mg): 6.7 × 10^6
Cells harvested (percent) ([1]; regular conjugate 1 mg): 67%
Viability ([1]; regular conjugate 1 mg): 79.1%
Cell concentration ([1]; regular conjugate 5 mg): 7.0 × 10^5
Cells harvested ([1]; regular conjugate 5 mg): 3.5 × 10^6
Cells harvested (percent) ([1]; regular conjugate 5 mg): 35%
Viability ([1]; regular conjugate 5 mg): 91.4%
Cell concentration [1, 15]: 9.0 × 10^5
Cells harvested [1, 15]: 4.5 × 10^6
Cells harvested (percent) [1, 15]: 45%
Viability [1, 15]: 77.8%
Cell concentration [2, 16]: 4.2 × 10^5 cells/mL
Cells harvested [2, 16]: 1.1 × 10^6
Cells harvested (percent) [2, 16]: 21%
Viability [2, 16]: 85.7%
Cell concentration [2, 17]: 6.0 × 10^5 cells/mL
Cells harvested [2, 17]: 1.5 × 10^6
Cells harvested (percent) [2, 17]: 30%
Viability [2, 17]: 80.0%
Cell concentration [2, 18]: 2.8 × 10^5 cells/mL
Cells harvested [2, 18]: 0.7 × 10^6
Cells harvested (percent) [2, 18]: 14%
Viability [2, 18]: 71.4%
Cell concentration [2, 19]: 4.4 × 10^5 cells/mL
Cells harvested [2, 19]: 1.1 × 10^6
Cells harvested (percent) [2, 19]: 22%
Viability [2, 19]: 81.8%
Cell concentration [2, 20]: 4.2 × 10^5 cells/mL
Cells harvested [2, 20]: 1.1 × 10^6
Cells harvested (percent) [2, 20]: 21%
Viability [2, 20]: 66.7%
Cell concentration [2, 21]: 6.0 × 10^5 cells/mL
Cells harvested [2, 21]: 1.5 × 10^6
Cells harvested (percent) [2, 21]: 30%
Viability [2, 21]: 60.1%
Cell concentration [2, 22]: 4.2 × 10^5 cells/mL
Cells harvested [2, 22]: 1.1 × 10^6
Cells harvested (percent) [2, 22]: 21%
Viability [2, 22]: 57.1%

— patent publication US8785594B2, “Glycoproteins and glycosylated cells and a method for the preparation of the same” (Glycom A/S, priority 2007, dated 2014)
